In article PMC7822874, “Chemoprotective antimalarials identified through quantitative high-throughput screening of Plasmodium blood and liver stage parasites” (Scientific Reports, 2021):
Like-named read-outs stand apart in the source and are kept apart here. Blank lines part the entries; values can stand above or below the molecule they belong to.

Tests used:
in vitro [1] = conditions: human, hepg2 cells
HepG2 = conditions: human, hepg2 cells, 48 h
[2] = system: P. falciparum Dd2 (clone B2) asexual blood stage parasites; assay: P. falciparum Dd2 asexual blood stage SYBR Green-I 72 h proliferation assay (qHTS); assay type: cell-based, Plasmodium falciparum; conditions: Plasmodium falciparum, DD2, Dd2 parental; Hill fit, averaged from three independent replicates; top concentration 29 µM; read-out: Average AC50 (Log[M]), Dd2 (converted)
[3] = system: P. falciparum Dd2 Cytb G131S; assay: SYBR Green ABS proliferation assay, NCGC00374598 selected clone C11; assay type: cell-based, Plasmodium falciparum; conditions: Plasmodium falciparum
Experimental: (§1) As resistance selection studies implicated the parasite cytochrome bc1 complex in mediating reduced parasite susceptibility to both NCGC00473217 and NCGC00374598, we leveraged these drug-selected parasites to test for altered drug response to a panel of antimalarial compounds.
(§2) The P. falciparum parasite Dd2 line was cultured in vitro using standard conditions. […] Tissue culture flasks and assay plates were incubated at 37 °C under a gas mixture of 5% CO2, 5% O2 and 90% N2. […] Significant differences were assessed using two-sided Student’s t-tests. All HTS assays were stopped and read at 72 h. Percent response values represent relative growth as judged by SYBR Green-I fluorescence intensity values normalized to controls.
(§3) Fresh uninfected RBCs (0.5% hematocrit) were added on day 7 and media was changed every other day. […] Resistant parasites were maintained under drug media at a volume of 50 mL until a high parasitemia (> 5%) was achieved. Aliquots of the bulk resistant cultures were frozen in cryovials before cloning by limiting dilution in 96-well plates (seeded at 0.25 or 0.5 parasites/well)[70]. After 3 weeks of cloning, we screened for positive wells by flow cytometry with SYBR Green-stained cells. […] Parasites were harvested by saponin lysis at the trophozoite stage and genomic DNA was extracted using the QIAamp DNA Blood Midi Kit (Qiagen, Germantown, MD)[71].

[4] = system: P. falciparum Dd2 Cytb V259L; assay: SYBR Green ABS proliferation assay, NCGC00473217 selected clone F06; assay type: cell-based, Plasmodium falciparum; conditions: Plasmodium falciparum
Experimental: as §1, §2, §3

[5] = system: P. berghei-ANKA-GFP-LucCON liver stage parasites in HepG2-A16-CD81EGFP cells; assay: P. berghei liver stage Pb-Luc assay, Method 1 (UCSD, 1536-well); assay type: cell-based, Plasmodium berghei; conditions: Plasmodium berghei; for activity at 1 µM / activity at 3 µM: 48 h, average of 2 wells, 1536-well plate; for activity at 1 µM: nominal 1 uM (10 mM stock), […] for 15 mM, 1.2 uM for 12 mM, 2 uM for 20 mM stock; for activity at 3 µM: nominal 3 uM (10 mM stock), 4.5 uM for 15 mM, 3.6 uM for 12 mM, 6 uM for 20 mM stock; for AC50: Method 1
in vitro [6] = conditions: human, HepG2-A16-CD81EGFP cells, uninfected
HepG2-A16-CD81EGFP cells = conditions: average of 2 wells, repeat 2
[7] = system: Plasmodium falciparum Dd2 asexual blood stage parasites; assay: microbe, parasite or virus in culture; parameters: species or system Plasmodium falciparum Dd2 in human erythrocytes; single determination (one 11-point concentration-response curve); conditions: Plasmodium falciparum, DD2, Erythrocyte, 72 h; read-out: AC50
[8] = DD2, […], averaged from three independent replicates, top concentration 29 µM, read-out: Average AC50 (Log[M]), NCGC00374598 clone C11 (Cytb G131S) (converted)
[9] = DD2, […], averaged from three independent replicates, top concentration 29 µM, read-out: Average AC50 (Log[M]), NCGC00473217 clone F06 (Cytb V259L) (converted)

SMILES: N[S+](=O)([O-])c1cc2c(cc1Cl)N=CN[S+]2(=O)[O-] [NCGC00015242-14]
- AC50 [2]: 2e-06 M
- AC50 [3, 8]: 7.1e-07 M

SMILES: CN1C(CCl)Nc2cc(Cl)c([S+](N)(=O)[O-])cc2[S+]1(=O)[O-] (centres unmarked) [NCGC00167446-03]
- AC50 [2]: 2.82e-08 M
- AC50 [4, 9]: 3.17e-08 M
- AC50 [3, 8]: 3.17e-08 M

SMILES: CCCN1C(CC(C)C)=N[S+](=O)([O-])c2cc(NC(=O)c3cccc(C#N)c3)ccc21 [NCGC00531772-01]
- AC50 ([4]; DD2, cytochrome b mutant line, third value triple, c9, […], read-out: log AC50, mean (converted)): 8.93e-07 M
- AC50 ([3]; DD2, cytochrome b mutant line, second value triple, c6, […], read-out: log AC50, mean (converted)): 2.67e-07 M

SMILES: Cc1nn2c(c1-c1ccccc1Oc1ccccc1)N(Cc1ccccc1O)CCC2 [NCGC00420455-01]
- activity at 1 µM ([5]; repeat 1, read-out: Pb-Luc signal, 1 uM, repeat 1): 75.6%
- activity at 1 µM ([5]; repeat 2, read-out: Pb-Luc signal, 1 uM, repeat 2): 75%
- activity at 1 µM ([5]; repeat 3, read-out: Pb-Luc signal, 1 uM, repeat 3): 78.3%
- activity at 3 µM ([5]; repeat 1, read-out: Pb-Luc signal, 3 uM, repeat 1): 1.18%
- activity at 3 µM ([5]; repeat 2, read-out: Pb-Luc signal, 3 uM, repeat 2): 4.89%
- activity at 3 µM ([5]; repeat 3, read-out: Pb-Luc signal, 3 uM, repeat 3): 23.7%
- AC50 ([5]; Hill fit, 50% of maximum activity response, read-out: AC50): 1.41 µM
- AC50 ([5]; log10 of molar AC50 from Hill fit, read-out: Log AC50 (converted)): 1.41 µM
- viability at 48 h, 1 µM (in vitro [6]): 104%
- viability at 48 h, 3 µM (in vitro [6]): 115%
- CC50 at 48 h (in vitro [1]): > 57 µM
- HepG2 viability signal, 1 uM, repeat 2 (HepG2-A16-CD81EGFP cells; nominal 1 uM (10 mM stock), […] for 15 mM, 1.2 uM for 12 mM, 2 uM for 20 mM stock): 99.80%
- HepG2 viability signal, 3 uM, repeat 2 (HepG2-A16-CD81EGFP cells; nominal 3 uM (10 mM stock), 4.5 uM for 15 mM, 3.6 uM for 12 mM, 6 uM for 20 mM stock): 116.91%
- AC50 [7]: 4.85 µM

SMILES: CCCn1c2c(c(=N)c3c1CCC3)CCC2 [MLS001047442-01]
- viability at 48 h (in vitro [6]): 99.2%
- viability at 48 h, 1 µM (in vitro [6]): 99.2%
- CC50 at 48 h (in vitro [1]): > 57 µM
- AC50 [7]: 13.3 µM

SMILES: CCCN1C(C)=N[S+](=O)([O-])c2cc(NC(=O)c3cccs3)ccc21 [NCGC00522606-01]
- AC50 [2]: 8.93e-06 M
- AC50 [3, 8]: 2e-06 M

SMILES: CCCN1C(CC(C)C)=N[S+](=O)([O-])c2cc(N[S+](=O)([O-])c3ccccc3C)ccc21 [NCGC00521140-01]
- AC50 [4, 9]: 1e-05 M

More lines, main results first:

- Log AC50 (M) (HepG2): -4.3643 M
SMILES: CCN(CC)CCCNC(=O)c1ccc2c(c1)sc1nc(-c3ccc(C)cc3)cn12 [NCGC00121667-01]
- CC50 at 48 h (in vitro [1]): 43.2 µM

- Log AC50 (M) (HepG2): -4.3643 M
SMILES: Cc1ccc(-c2nn(-c3ccccc3)cc2CSC(=N)N)cc1 [MLS000572993-01]
- CC50 at 48 h (in vitro [1]): 43.2 µM

- Log AC50 (M) (HepG2): -4.5143 M
SMILES: O=C(Nc1ccc(Oc2cccnc2)cc1)C1CCN(Cc2cc(Cl)ccc2O)CC1 [MLS001072411-01]
- CC50 at 48 h (in vitro [1]): 30.6 µM

- Log AC50 (M) (HepG2): -4.4143 M
SMILES: COc1cnc(-c2ccccn2)nc1Oc1ccc(C(C)(C)C)cc1 [MLS001165485-01]
- CC50 at 48 h (in vitro [1]): 38.5 µM

- Log AC50 (M) (HepG2): -4.7643 M
SMILES: O=C(Nc1ccc(Oc2cccc(C(F)(F)F)c2)nc1)c1cccs1 [MLS000860613-01]
- CC50 at 48 h (in vitro [1]): 17.2 µM

- Log AC50 (M) (HepG2): -4.3643 M
SMILES: CCC(C(=O)N1CCN(c2cc(-c3cccs3)n[nH]2)CC1)c1ccccc1 (centres unmarked) [NCGC00436744-01]
- CC50 at 48 h (in vitro [1]): 43.2 µM

- Log AC50 (M) (HepG2): -4.5643 M
SMILES: O=C1CCN(Cc2ccc(C(F)(F)F)cc2)CCCC(c2nc(-c3cccnc3)no2)CCN1 (centres unmarked) [NCGC00465921-01]
- CC50 at 48 h (in vitro [1]): 27.3 µM

- Log AC50 (M) (HepG2): -4.3643 M
SMILES: COc1ccc(CNc2ncnc3c2[nH]c2ccccc23)cc1 [MLS000768346-01]
- CC50 at 48 h (in vitro [1]): 43.2 µM

- Log AC50 (M) (HepG2): -4.4643 M
SMILES: CCCCOc1ccc(-c2nc(C3CC(=O)N(C4CCCCC4)C3)no2)cc1 (centres unmarked) [NCGC00448051-01]
- CC50 at 48 h (in vitro [1]): 34.3 µM

- Log AC50 (M) (HepG2): -4.3643 M
SMILES: O=C(NC1CCN(c2cc(-c3cccs3)n[nH]2)CC1)c1cccc(OC(F)(F)F)c1 [NCGC00437198-01]
- CC50 at 48 h (in vitro [1]): 43.2 µM

- Log AC50 (M) (HepG2): -4.3643 M
SMILES: COc1cc(NC(=O)Cn2c(N(C)Cc3ccccc3)nc(C)cc2=O)cc(OC)c1 [NCGC00432301-01]
- CC50 at 48 h (in vitro [1]): 43.2 µM
